Laboratory results reported in ChEMBL document CHEMBL5360520, “Catalytic covalent inhibition of cyclooxygenase-1 by a biomimetic acyltransferase” (Bioorg Med Chem, 2022).
pIC50, pKi: −log10 of the molar value. Calls of active or inactive are those of the source. No cut-off for these calls is given here.

What was measured:
[1] = tested on: A549; assay: Cytotoxicity against human A549 cells assessed as reduction in cell viability at 15 uM by MTT assay; type: toxicity, cell-based; conditions: a549, 15 µM
[2] = biological target: T1, Prostaglandin G/H synthase 1 (Ovis aries) (UniProt P05979); assay: Covalent inhibition of recombinant ovine COX-1 using arachidonic acid as substrate assessed as reduction in PGE2 production preincubated with compound followed by substrate addition and measured after 10 mins by LC-MS/MS analysis; conditions: time 70-310 min, TDE = time-dependent effect
T1 sequence (whole entry): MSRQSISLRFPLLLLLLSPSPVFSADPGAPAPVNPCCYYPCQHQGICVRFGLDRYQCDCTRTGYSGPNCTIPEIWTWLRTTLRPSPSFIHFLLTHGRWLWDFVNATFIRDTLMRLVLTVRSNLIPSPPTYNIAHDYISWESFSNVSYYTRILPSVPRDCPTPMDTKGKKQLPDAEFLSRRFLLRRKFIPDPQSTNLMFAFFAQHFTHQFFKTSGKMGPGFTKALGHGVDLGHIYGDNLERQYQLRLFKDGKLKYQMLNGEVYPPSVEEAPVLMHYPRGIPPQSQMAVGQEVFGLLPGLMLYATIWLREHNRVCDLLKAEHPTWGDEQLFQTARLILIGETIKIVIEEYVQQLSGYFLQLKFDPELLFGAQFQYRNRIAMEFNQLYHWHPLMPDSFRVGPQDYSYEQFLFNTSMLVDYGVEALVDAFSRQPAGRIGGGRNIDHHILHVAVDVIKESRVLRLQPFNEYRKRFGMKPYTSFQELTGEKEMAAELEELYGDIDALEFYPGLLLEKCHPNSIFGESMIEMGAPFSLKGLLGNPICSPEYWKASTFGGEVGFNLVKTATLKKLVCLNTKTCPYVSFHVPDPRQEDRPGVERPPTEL

[3] = biological target: T1, Prostaglandin G/H synthase 1 (Ovis aries); assay: Covalent inhibition of recombinant ovine COX1 using arachidonic acid as substrate assessed as residual activity preincubated with compound for 6 hrs followed by substrate addition for 10 mins and measured after 8 hrs of dialysis by LC-MS/MS analysis relative to control; conditions: time 370.0 min
[4] = biological target: T1, Prostaglandin G/H synthase 1 (Ovis aries); assay: Covalent inhibition of recombinant ovine COX1 using arachidonic acid as substrate assessed as reduction in PGE2 production preincubated with compound followed by substrate addition and measured after 10 mins by LC-MS/MS analysis relative to control
[5] = biological target: T1, Prostaglandin G/H synthase 1 (Ovis aries); assay: Inhibition of recombinant ovine COX1 using arachidonic acid as substrate assessed as Kinact/Ki ratio preincubated with compound for 10 to 40 mins followed by substrate addition and measured after 10 mins by LC-MS/MS analysis; conditions: time 20-50 min
[6] = biological target: Prostaglandin G/H synthase 1 (Homo sapiens) (UniProt P23219); assay: Covalent inhibition of COX1 in LPS-treated human A549 cells using arachidonic acid as substrate assessed as reduction in PGE2 production at 40 uM measured every 24 hrs by LC-MS/MS analysis; conditions: time <= 48.0 hrs, TDE = time-dependent effect
[7] = biological target: T2, Prostaglandin G/H synthase 1 (Ovis aries, UniProt P05979); assay: Covalent inhibition of recombinant ovine COX-1 using arachidonic acid as substrate assessed as reduction in PGE2 production preincubated with compound for 1 hrs followed by substrate addition and measured after 10 mins by LC-MS/MS analysis
T2 sequence (P05979 whole entry): T1 sequence (whole entry)

[8] = biological target: Prostaglandin G/H synthase 1 (Homo sapiens) (UniProt P23219); assay: Covalent inhibition of COX1 in LPS-treated human A549 cells using arachidonic acid as substrate assessed as reduction in PGE2 production at 40 uM preincubated with compound for 12 hrs followed by washout and measured after 20 mins of substrate addition by LC-MS/MS analysis
[9] = biological target: T1, Prostaglandin G/H synthase 1 (Ovis aries); assay: Covalent inhibition of recombinant ovine COX1 using arachidonic acid as substrate assessed as inhibition rate preincubated with compound for 10 to 40 mins followed by substrate addition and measured after 10 mins by LC-MS/MS analysis; conditions: time 20-50 min
[10] = biological target: T2, Prostaglandin G/H synthase 1; assay: Non-covalent binding affinity to recombinant ovine COX1 using arachidonic acid as substrate assessed as binding constant preincubated with compound for 10 to 40 mins followed by substrate addition and measured after 10 mins by LC-MS/MS analysis
[11] = biological target: T1, Prostaglandin G/H synthase 1 (Ovis aries); assay: Covalent inhibition of recombinant ovine COX1 using arachidonic acid as substrate assessed as acetylation at Ser530 residues preincubated with compound followed by substrate addition and measured after 10 mins by LC-MS/MS analysis
[12] = biological target: T2, Prostaglandin G/H synthase 1; assay: Covalent inhibition of recombinant ovine COX-1 using arachidonic acid as substrate assessed as reduction in PGE2 production preincubated with compound for 5 hrs followed by substrate addition and measured after 10 mins by LC-MS/MS analysis
[13] = biological target: Prostaglandin G/H synthase 1 (Homo sapiens) (UniProt P23219); assay: Covalent inhibition of COX1 in LPS-treated human A549 cells using arachidonic acid as substrate assessed as reduction in PGE2 production at 15 uM preincubated with compound for 24 hrs followed by washout and measured after 20 mins of substrate addition by LC-MS/MS analysis
[14] = biological target: T1, Prostaglandin G/H synthase 1 (Ovis aries); assay: Covalent inhibition of recombinant ovine COX1 using arachidonic acid as substrate assessed as reduction in PGE2 production at 10 uM preincubated with compound for 16 hrs followed by substrate addition for 10 mins in the presence of AcSNAC and measured after 16 hrs of dialysis by LC-MS/MS analysis; conditions: time 970.0 min
[15] = biological target: T1, Prostaglandin G/H synthase 1 (Ovis aries); assay: Covalent inhibition of recombinant ovine COX1 using arachidonic acid as substrate assessed as reduction in PGE2 production at 40 uM preincubated with compound for […] followed by substrate addition and measured after 10 mins in the presence of AcSNAC by LC-MS/MS analysis; conditions: time 370.0 min
[16] = biological target: T1, Prostaglandin G/H synthase 1 (Ovis aries); assay: Covalent inhibition of recombinant ovine COX1 using arachidonic acid as substrate assessed as reduction in PGE2 production preincubated with compound for 6 hrs followed by substrate addition for 10 mins and measured after 8 hrs of dialysis by LC-MS/MS analysis; conditions: time 370.0 min

inhibition [2] | Ratio [5] | Kinact [9] | pKi [10] | Compound | Activity [1] | also measured
Tde |  |  |  | CC(=O)Oc1ccccc1C(=O)O [ASPIRIN] | Non-Toxic | 
 |  |  |  | CCCCC#CCNC(=O)c1ccccc1SC |  | Activity [3]: 83%; inhibition [4]: 97%
 | 0.65 10^-3/min/µM | 2.1 10^-2/min | 4.47 | CCCCCCNC(=O)c1ccccc1SC(C)=O |  | inhibition [6]: Tde; pIC50 [7]: 4.30; inhibition [8]: Active; inhibition [11]: Active; pIC50 [12]: 5.00
 |  |  |  | CCCCC#CCNC(=O)c1ccccc1S | Non-Toxic | inhibition [13]: 60%; inhibition [14]: Active
Tde | 2.4 10^-3/min/µM | 2.5 10^-2/min | 4.82 | C#CCNC(=O)c1ccccc1SC(C)=O |  | 
 |  |  |  | CCCCCCNC(=O)c1ccccc1S |  | inhibition [15]: Active; inhibition [8]: Active
Tde | 2.58 10^-3/min/µM | 2.2 10^-2/min | 5.05 | CCCCC#CCNC(=O)c1ccccc1SC(C)=O | Non-Toxic | inhibition [16]: Active; inhibition [11]: Active
